Reference: patent US20140275090A1, “BILE ACID RECYCLING INHIBITORS FOR TREATMENT OF PRIMARY SCLEROSING CHOLANGITIS AND INFLAMMATORY BOWEL DISEASE” (Lumena Pharmaceuticals, Inc., priority 2013, published 2014)

Experiments:
Type in all cases: in vivo, human
[1] = Open-label single-dose [14C]LUM001 oral solution study: radioactivity in plasma, whole blood, urine, feces; conditions: for Radioactive Concentration, Plasma / Radioactive Concentration, Whole Blood: 5 mg [14C]LUM001 oral solution
Procedure: This was an open-label, one-period, single-dose study of a [^14C]LUM001 oral solution. Eight healthy male subjects received an oral solution of 5 mg [^14C]LUM001 (containing approximately […] per dose). Blood samples were collected at predose and for 72 hours postdose, urine samples were collected predose and for 168 hours postdose and feces were collected predose and for 216 hours postdose. Plasma, whole blood, urine and fecal samples were analyzed for total radioactivity, and selected fecal samples were analyzed for LUM001 and relevant metabolite concentrations. In addition, metabolic profiles in selected fecal samples were obtained using high performance liquid radio chromatography (HPLRC).

[2] = system: fecal bile acids; assay: Phase 1 ascending multiple oral doses of LUM001 in healthy adults: fecal bile acid analysis; conditions: 28 days
Procedure: This Phase 1 study was a randomized, double-blind, placebo-controlled study of ascending multiple oral doses of LUM001 in healthy, adult subjects. This study was conducted at a single center. There were 13 LUM001 dosing panels: 10, 20, 60, 100, and 20 mg every morning (qAM) (2) (i.e., the regimen was tested a second time in the study), 5 mg every evening (qPM), 0.5, 1, 2.5, 5, 2.5 (2), 5 (2), and 0.5 to 5 mg qAM dose titration. Most of the dosing panels included subjects treated with matching placebo. No subject participated in more than 1 dosing panel. […]
On Day 1 of the Treatment Period, subjects who qualified for enrollment were randomized in the order in which they were admitted to the research facility. […] The safety and tolerability of LUM001 were evaluated by physical examination, ascertainment of adverse signs and symptoms, and clinical laboratory studies. […]
Fecal samples were collected for all panels except the dose-titration panel, 2.5 (2) and 5 mg (2), on Days 9 through 14 and 23 through 28 (data shown in FIG. 6; *p<0.05; **p<0.01 compared to placebo). Twenty-four hour FBA excretions were quantified by Pharmacia for Days 9 through 14 and 23 through 28. […] The weight of each 24-hour fecal collection was recorded on the CRFs. […]
An aliquot for each 24-hour fecal sample collected on Days 23 through 28 was combined, homogenized, and analyzed for bile acid species concentrations by ANAPHARM. […]

[3] = system: serum bile acids; assay: Fasting and post-prandial peak serum bile acids in children and adolescents after eight days of LUM001; conditions: LUM001 treated patients
Procedure: The efficacy of LUM001 was determined by measuring total serum bile acids after eight days of dosing in children and adolescents under the age of eighteen. Thirty minutes before the next drug administration, at approximately 8 am in the morning, serum bile acid levels were measured. The child had refrained from food for 12 hours prior to this sample thus providing a fasted level of serum bile acid. After breakfast, serum bile acids were measured for up to the next 4 hours (8 am to noon) and the peak serum bile acid concentration noted.

Radioactive Concentration, Plasma ([1]; 0.5 hr): BLQ
Radioactive Concentration, Plasma ([1]; 1 hr): BLQ
Radioactive Concentration, Whole Blood ([1]; 1 hr): 0.000 ng equivalents/g
Radioactive Concentration, Plasma ([1]; 1.5 hr): BLQ
Radioactive Concentration, Plasma ([1]; 2 hr): BLQ
Radioactive Concentration, Plasma ([1]; 2.5 hr): BLQ
Radioactive Concentration, Plasma ([1]; 3 hr): BLQ
Radioactive Concentration, Plasma ([1]; 4 hr): BLQ
Radioactive Concentration, Whole Blood ([1]; 4 hr): 0.000 ng equivalents/g
Radioactive Concentration, Plasma ([1]; 6 hr): BLQ
Radioactive Concentration, Plasma ([1]; 8 hr): BLQ
Radioactive Concentration, Plasma ([1]; 12 hr): BLQ
Radioactive Concentration, Plasma ([1]; 16 hr): 0.000 ng equivalents/mL
Radioactive Concentration, Plasma ([1]; 24 hr): BLQ
Radioactive Concentration, Plasma ([1]; 36 hr): 0.000 ng equivalents/mL
Radioactive Concentration, Plasma ([1]; 48 hr): BLQ
Radioactive Concentration, Plasma ([1]; 60 hr): BLQ
Radioactive Concentration, Plasma ([1]; 72 hr): BLQ
Radioactive Concentration, Whole Blood ([1]; −0.5 hr): 0.000 ng equivalents/g
Percent of Dose ([1]; analyte in feces, mean): 65.0 ± 3.1%
Cumulative % of Total Dose, Total (Urine and Feces) ([1]; radioactivity): 72.532%
Cumulative % of Total Dose, Urine ([1]; radioactivity, 0-2 hr): 0.005%
Cumulative % of Total Dose, Feces ([1]; radioactivity, 0-24 hr): 30.376%
Cumulative % of Total Dose, Urine ([1]; radioactivity, 2-4 hr): 0.012%
Cumulative % of Total Dose, Urine ([1]; radioactivity, 4-8 hr): 0.028%
Cumulative % of Total Dose, Urine ([1]; radioactivity, 8-12 hr): 0.041%
Cumulative % of Total Dose, Urine ([1]; radioactivity, 12-24 hr): 0.058%
Cumulative % of Total Dose, Feces ([1]; radioactivity, 24-48 hr): 49.878%
Cumulative % of Total Dose, Urine ([1]; radioactivity, 24-48 hr): 0.057%
Cumulative % of Total Dose, Feces ([1]; radioactivity, 48-72 hr): 67.630%
Cumulative % of Total Dose, Urine ([1]; radioactivity, 48-72 hr): 0.062%
Cumulative % of Total Dose, Feces ([1]; radioactivity, 72-96 hr): 69.653%
Cumulative % of Total Dose, Urine ([1]; radioactivity, 72-96 hr): 0.063%
Cumulative % of Total Dose, Feces ([1]; radioactivity, 96-120 hr): 71.606%
Cumulative % of Total Dose, Urine ([1]; radioactivity, 96-120 hr): 0.063%
Cumulative % of Total Dose, Feces ([1]; radioactivity, 120-144 hr): 71.771%
Cumulative % of Total Dose, Urine ([1]; radioactivity, 120-144 hr): 0.064%
Cumulative % of Total Dose, Feces ([1]; radioactivity, 144-168 hr): 71.815%
Cumulative % of Total Dose, Urine ([1]; radioactivity, 144-168 hr): 0.066%
Cumulative % of Total Dose, Feces ([1]; radioactivity, 168-192 hr): 71.885%
Cumulative % of Total Dose, Feces ([1]; radioactivity, 192-216 hr): 71.885%
Cumulative % of Total Dose, Feces ([1]; radioactivity, incl. Toilet Paper (cumulative recovery from first five fecal samples)): 72.466%
SMILES: CCCCC1(CCCC)CS(=O)(=O)c2ccc(N(C)C)cc2[C@@H](c2ccc(OCc3ccc(C[N+]45CCN(CC4)CC5)cc3)cc2)[C@H]1O [LUM001]
effect on fecal bile acids [2]: significant increase
decrease in fasting serum bile acid level vs placebo [3]: 24%
decrease in post-prandial peak serum bile acid level vs placebo [3]: 23%
